“And” between values parts separate entries of the source, which are not always exact repeats. Equal entries are not always repeated. Blank lines part the entries; values can stand above or below the compound they belong to.
What was measured:
Assay in all cases: Caliper, Mobility shift assay off-chip
ALK (human) = ALK (human) (UniProt Q9UM73)
ALK NPM1 (human) = ALK NPM1 (human) (UniProt P06748+Q9UM73)
BMX (human) = BMX (human) (UniProt P51813)
CDK3 (human) = CDK3 (human) (UniProt Q00526)
CDK7 (human) = CDK7 (human) (UniProt P50613)
CHUK (human) = CHUK (human) (UniProt O15111)
CSF1R (human) = CSF1R (human) (UniProt P07333)
EPHA6 (human) = EPHA6 (human) (UniProt Q9UF33)
FGFR4 (human) = FGFR4 (human) (UniProt P22455)
FLT1 (human) = FLT1 (human) (UniProt P17948)
INSRR (human) = INSRR (human) (UniProt P14616)
JAK2 JH1 JH2 (human) = JAK2 JH1 JH2 (human) (UniProt O60674)
KDR (human) = KDR (human) (UniProt P35968)
MAPK10 (human) = MAPK10 (human) (UniProt P53779)
MAPK14 (human) = MAPK14 (human) (UniProt Q16539)
MAPKAPK2 (human) = MAPKAPK2 (human) (UniProt P49137)
MELK (human) = MELK (human) (UniProt Q14680)
NUAK2 (human) = NUAK2 (human) (UniProt Q9H093)
PHKG2 (human) = PHKG2 (human) (UniProt P15735)
PRKCB1 (human) = PRKCB1 (human) (UniProt P05771)
PRKCG (human) = PRKCG (human) (UniProt P05129)
PRKCQ (human) = PRKCQ (human) (UniProt Q04759)
PRKD1 (human) = PRKD1 (human) (UniProt Q15139)
RPS6KA4 KD1 KD2 (human) = RPS6KA4 KD1 KD2 (human) (UniProt O75676)
SPHK2 (human) = SPHK2 (human) (UniProt Q9NRA0)
SRPK2 (human) = SRPK2 (human) (UniProt P78362)
STK38L (human) = STK38L (human) (UniProt Q9Y2H1)
TXK (human) = TXK (human) (UniProt P42681)
WNK3 (human) = WNK3 (human) (UniProt Q9BYP7)
ZAP70 (human) = ZAP70 (human) (UniProt P43403)
CDK5 (human) = CDK5 (human) (UniProt Q00535)
PDGFRB (human) = PDGFRB (human) (UniProt P09619)
RET (human) = RET (human) (UniProt P07949)

TXK (human), sequence (P42681 whole entry, looked up): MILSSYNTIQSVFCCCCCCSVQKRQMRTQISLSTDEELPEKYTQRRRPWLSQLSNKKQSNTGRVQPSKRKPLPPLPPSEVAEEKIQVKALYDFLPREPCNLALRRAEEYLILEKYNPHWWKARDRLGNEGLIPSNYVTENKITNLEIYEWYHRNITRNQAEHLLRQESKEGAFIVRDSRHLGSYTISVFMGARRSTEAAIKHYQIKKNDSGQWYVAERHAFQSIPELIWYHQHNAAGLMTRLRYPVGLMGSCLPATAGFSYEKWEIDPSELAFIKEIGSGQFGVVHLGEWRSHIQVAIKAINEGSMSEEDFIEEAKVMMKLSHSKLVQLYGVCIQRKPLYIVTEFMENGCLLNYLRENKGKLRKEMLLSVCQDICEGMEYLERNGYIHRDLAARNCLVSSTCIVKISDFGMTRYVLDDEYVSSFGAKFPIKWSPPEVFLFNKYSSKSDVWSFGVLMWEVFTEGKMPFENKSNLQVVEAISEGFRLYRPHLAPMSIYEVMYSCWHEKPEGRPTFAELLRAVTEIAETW
ALK (human), sequence (Q9UM73 whole entry, looked up): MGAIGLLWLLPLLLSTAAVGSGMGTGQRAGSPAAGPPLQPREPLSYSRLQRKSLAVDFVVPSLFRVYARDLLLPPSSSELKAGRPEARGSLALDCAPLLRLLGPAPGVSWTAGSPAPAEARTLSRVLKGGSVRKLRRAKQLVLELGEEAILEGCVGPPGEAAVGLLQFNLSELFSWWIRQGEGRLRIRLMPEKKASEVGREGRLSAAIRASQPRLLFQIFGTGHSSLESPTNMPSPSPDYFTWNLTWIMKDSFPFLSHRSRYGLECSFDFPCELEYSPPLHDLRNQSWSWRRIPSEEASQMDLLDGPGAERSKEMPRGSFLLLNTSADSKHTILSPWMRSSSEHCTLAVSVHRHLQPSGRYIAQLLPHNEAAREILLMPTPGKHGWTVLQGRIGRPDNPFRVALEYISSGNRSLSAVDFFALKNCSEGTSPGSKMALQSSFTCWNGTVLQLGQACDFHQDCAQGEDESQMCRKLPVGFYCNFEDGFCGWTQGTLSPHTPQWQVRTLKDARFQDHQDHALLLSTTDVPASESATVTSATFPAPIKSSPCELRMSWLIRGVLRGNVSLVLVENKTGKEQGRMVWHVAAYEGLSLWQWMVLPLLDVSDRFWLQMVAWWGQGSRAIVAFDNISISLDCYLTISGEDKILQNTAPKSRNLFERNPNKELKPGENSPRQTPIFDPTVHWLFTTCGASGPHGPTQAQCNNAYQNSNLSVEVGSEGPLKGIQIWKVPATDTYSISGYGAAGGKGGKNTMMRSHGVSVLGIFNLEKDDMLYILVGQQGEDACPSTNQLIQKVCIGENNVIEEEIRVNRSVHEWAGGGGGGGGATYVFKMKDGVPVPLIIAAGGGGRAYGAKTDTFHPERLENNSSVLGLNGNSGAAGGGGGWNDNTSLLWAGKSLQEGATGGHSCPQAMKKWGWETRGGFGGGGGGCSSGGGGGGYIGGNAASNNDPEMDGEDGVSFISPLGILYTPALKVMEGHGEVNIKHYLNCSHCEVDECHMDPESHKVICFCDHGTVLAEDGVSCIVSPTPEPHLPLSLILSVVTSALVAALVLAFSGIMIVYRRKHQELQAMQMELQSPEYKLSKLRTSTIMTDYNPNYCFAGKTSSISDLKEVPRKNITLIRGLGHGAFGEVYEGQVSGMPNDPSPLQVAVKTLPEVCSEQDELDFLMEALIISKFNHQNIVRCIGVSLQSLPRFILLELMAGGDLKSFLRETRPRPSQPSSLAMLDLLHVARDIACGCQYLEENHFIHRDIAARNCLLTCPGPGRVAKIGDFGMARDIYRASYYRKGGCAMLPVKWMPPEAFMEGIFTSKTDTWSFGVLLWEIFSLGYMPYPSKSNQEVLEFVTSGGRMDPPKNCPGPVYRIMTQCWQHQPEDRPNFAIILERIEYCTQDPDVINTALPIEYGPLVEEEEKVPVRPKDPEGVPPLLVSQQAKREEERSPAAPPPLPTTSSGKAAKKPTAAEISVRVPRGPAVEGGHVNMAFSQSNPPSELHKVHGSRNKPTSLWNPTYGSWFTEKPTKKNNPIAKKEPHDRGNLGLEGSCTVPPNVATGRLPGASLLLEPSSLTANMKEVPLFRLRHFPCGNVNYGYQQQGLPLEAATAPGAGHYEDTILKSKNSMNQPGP
RPS6KA4 KD1 KD2 (human), sequence (O75676 whole entry, looked up): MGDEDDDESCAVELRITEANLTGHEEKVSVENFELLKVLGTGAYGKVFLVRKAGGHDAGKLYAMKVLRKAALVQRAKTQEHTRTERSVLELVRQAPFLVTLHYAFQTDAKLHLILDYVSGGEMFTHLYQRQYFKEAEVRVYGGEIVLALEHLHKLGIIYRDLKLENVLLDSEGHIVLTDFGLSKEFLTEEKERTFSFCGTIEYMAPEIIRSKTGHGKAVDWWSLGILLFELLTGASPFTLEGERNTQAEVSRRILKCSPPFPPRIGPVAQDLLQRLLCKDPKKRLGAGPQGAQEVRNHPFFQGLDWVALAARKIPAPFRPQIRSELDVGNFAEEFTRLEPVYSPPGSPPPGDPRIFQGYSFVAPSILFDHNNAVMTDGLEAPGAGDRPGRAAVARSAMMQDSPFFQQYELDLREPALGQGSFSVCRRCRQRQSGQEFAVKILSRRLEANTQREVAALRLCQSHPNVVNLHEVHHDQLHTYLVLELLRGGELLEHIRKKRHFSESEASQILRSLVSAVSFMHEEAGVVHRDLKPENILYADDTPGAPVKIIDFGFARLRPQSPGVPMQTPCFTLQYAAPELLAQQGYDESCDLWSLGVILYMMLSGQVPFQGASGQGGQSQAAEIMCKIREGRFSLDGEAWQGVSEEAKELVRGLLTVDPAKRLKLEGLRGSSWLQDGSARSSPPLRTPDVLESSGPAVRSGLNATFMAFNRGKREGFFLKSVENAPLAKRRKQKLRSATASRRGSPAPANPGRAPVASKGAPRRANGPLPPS
PRKCB1 (human), sequence (P05771 whole entry, looked up): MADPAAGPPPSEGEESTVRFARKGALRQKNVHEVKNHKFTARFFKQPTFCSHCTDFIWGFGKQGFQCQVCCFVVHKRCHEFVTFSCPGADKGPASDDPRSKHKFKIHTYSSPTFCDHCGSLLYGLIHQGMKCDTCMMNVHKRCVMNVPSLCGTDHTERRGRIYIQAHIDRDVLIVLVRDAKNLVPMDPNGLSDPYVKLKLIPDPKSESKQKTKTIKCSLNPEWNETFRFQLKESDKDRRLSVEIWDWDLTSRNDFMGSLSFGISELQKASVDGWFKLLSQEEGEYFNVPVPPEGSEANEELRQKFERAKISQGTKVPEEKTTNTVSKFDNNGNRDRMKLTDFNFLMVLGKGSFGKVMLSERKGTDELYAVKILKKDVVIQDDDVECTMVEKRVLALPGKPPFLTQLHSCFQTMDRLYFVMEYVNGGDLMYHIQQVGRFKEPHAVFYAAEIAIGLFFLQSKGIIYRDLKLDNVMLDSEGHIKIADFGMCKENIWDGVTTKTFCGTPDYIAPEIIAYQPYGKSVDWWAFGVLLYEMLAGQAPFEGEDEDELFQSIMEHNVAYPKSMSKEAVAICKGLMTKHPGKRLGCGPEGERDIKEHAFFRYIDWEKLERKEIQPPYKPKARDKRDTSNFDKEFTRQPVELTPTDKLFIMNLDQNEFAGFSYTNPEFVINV
INSRR (human), sequence (P14616 whole entry, looked up): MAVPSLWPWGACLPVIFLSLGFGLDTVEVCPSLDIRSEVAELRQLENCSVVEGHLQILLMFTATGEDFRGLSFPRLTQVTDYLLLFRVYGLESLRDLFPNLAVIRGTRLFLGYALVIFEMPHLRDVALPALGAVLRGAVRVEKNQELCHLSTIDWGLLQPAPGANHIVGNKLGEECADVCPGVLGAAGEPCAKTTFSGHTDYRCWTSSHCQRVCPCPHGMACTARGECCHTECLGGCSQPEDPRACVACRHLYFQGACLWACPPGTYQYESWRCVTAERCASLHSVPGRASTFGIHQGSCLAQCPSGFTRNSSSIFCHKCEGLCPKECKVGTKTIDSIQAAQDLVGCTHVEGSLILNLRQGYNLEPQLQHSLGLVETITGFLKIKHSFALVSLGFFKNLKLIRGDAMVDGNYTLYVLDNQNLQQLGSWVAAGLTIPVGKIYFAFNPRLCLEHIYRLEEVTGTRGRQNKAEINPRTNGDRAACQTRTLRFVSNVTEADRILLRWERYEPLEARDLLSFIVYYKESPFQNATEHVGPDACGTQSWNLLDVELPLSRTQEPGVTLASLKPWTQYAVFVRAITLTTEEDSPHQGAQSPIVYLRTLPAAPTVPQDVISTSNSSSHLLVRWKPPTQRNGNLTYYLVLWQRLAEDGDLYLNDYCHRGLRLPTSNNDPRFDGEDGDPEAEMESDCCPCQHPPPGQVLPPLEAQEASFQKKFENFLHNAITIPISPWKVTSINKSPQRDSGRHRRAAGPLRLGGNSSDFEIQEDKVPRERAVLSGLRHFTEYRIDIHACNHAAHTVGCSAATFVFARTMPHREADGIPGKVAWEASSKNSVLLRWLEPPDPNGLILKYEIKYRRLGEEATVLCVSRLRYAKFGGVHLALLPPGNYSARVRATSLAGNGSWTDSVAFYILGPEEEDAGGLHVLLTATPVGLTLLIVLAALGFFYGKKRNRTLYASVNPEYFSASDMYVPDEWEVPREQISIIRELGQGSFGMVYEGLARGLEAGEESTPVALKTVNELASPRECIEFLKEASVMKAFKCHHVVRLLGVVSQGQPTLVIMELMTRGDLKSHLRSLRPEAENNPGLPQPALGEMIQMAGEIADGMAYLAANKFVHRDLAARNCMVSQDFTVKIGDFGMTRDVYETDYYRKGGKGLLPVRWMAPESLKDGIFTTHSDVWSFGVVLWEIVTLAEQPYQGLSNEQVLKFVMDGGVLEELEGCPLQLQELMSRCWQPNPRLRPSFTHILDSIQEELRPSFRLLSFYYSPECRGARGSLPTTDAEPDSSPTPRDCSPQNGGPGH

inhibition (ALK (human); compound 0.001 µM): 2.5%
inhibition (ALK (human); compound 0.02 µM): 1.4%
inhibition (ALK NPM1 (human); compound 0.001 µM): 1.1%
inhibition (ALK NPM1 (human); compound 0.02 µM): -0.3%
inhibition (BMX (human); compound 0.001 µM): 7.1%
inhibition (BMX (human); compound 0.02 µM): 4.9%
inhibition (CDK3 (human); compound 0.001 µM): -4.2%
inhibition (CDK3 (human); compound 0.02 µM): -4.8%
inhibition (CDK7 (human); compound 0.001 µM): -7.5%
inhibition (CDK7 (human); compound 0.02 µM): -3.4%
inhibition (CHUK (human); compound 0.001 µM): -2.6%
inhibition (CHUK (human); compound 0.02 µM): 2.6%
inhibition (CSF1R (human); compound 0.001 µM): 13.2%
inhibition (CSF1R (human); compound 0.02 µM): 22.8%
inhibition (EPHA6 (human); compound 0.02 µM): 0.3%
inhibition (FGFR4 (human); compound 0.001 µM): 0%
inhibition (FGFR4 (human); compound 0.02 µM): -3.4%
inhibition (FLT1 (human); compound 0.001 µM): 25.3%
inhibition (FLT1 (human); compound 0.02 µM): 99.3%
inhibition (INSRR (human); compound 0.001 µM): -5.2%
inhibition (INSRR (human); compound 0.02 µM): -8.3%
inhibition (JAK2 JH1 JH2 (human); compound 0.001 µM): 2.5%
inhibition (JAK2 JH1 JH2 (human); compound 0.02 µM): 4.7%
inhibition (KDR (human); compound 0.001 µM): 47.3%
inhibition (KDR (human); compound 0.02 µM): 97.4%
inhibition (MAPK10 (human); compound 0.001 µM): -5%
inhibition (MAPK10 (human); compound 0.02 µM): -4.4%
inhibition (MAPK14 (human); compound 0.001 µM): -8%
inhibition (MAPK14 (human); compound 0.02 µM): -6.9%
inhibition (MAPKAPK2 (human); compound 0.001 µM): 2.3%
inhibition (MAPKAPK2 (human); compound 0.02 µM): -0.8%
inhibition (MELK (human); compound 0.001 µM): 1.9%
inhibition (MELK (human); compound 0.02 µM): 0.9%
inhibition (NUAK2 (human); compound 0.001 µM): 9.9%
inhibition (NUAK2 (human); compound 0.02 µM): -0.7%
inhibition (PHKG2 (human); compound 0.001 µM): -6.2%
inhibition (PHKG2 (human); compound 0.02 µM): -3.3%
inhibition (PRKCB1 (human); compound 0.001 µM): 4% and 4.9%
inhibition (PRKCG (human); compound 0.001 µM): 1.2%
inhibition (PRKCG (human); compound 0.02 µM): 17.3%
inhibition (PRKCQ (human); compound 0.001 µM): 9.9%
inhibition (PRKCQ (human); compound 0.02 µM): -1.9%
inhibition (PRKD1 (human); compound 0.001 µM): -2.7%
inhibition (PRKD1 (human); compound 0.02 µM): -2.2%
inhibition (RPS6KA4 KD1 KD2 (human); compound 0.001 µM): -7.2%
inhibition (RPS6KA4 KD1 KD2 (human); compound 0.02 µM): -1.1%
inhibition (SPHK2 (human); compound 0.001 µM): 2.8%
inhibition (SPHK2 (human); compound 0.02 µM): -4.8%
inhibition (SRPK2 (human); compound 0.001 µM): -9.3%
inhibition (SRPK2 (human); compound 0.02 µM): -6.5%
inhibition (STK38L (human); compound 0.001 µM): 8.1%
inhibition (STK38L (human); compound 0.02 µM): -0.1%
inhibition (TXK (human); compound 0.001 µM): -4%
inhibition (TXK (human); compound 0.02 µM): -3.9%
inhibition (WNK3 (human); compound 0.001 µM): 0.8%
inhibition (WNK3 (human); compound 0.02 µM): -1.4%
inhibition (ZAP70 (human); compound 0.001 µM): -0.5%
inhibition (ZAP70 (human); compound 0.02 µM): 2.7%
SMILES: CNC(=O)c1ccccc1Sc1ccc2c(/C=C/c3ccccn3)n[nH]c2c1

inhibition (ALK (human); compound 0.02 µM): 10.1%
inhibition (ALK (human); compound 0.2 µM): 7.9%
inhibition (ALK NPM1 (human); compound 0.02 µM): 2.8%
inhibition (ALK NPM1 (human); compound 0.2 µM): 2.1%
inhibition (BMX (human); compound 0.02 µM): 6.9%
inhibition (BMX (human); compound 0.2 µM): 0.9%
inhibition (CDK3 (human); compound 0.02 µM): -2.4%
inhibition (CDK3 (human); compound 0.2 µM): -4.3%
inhibition (CDK5 (human); compound 0.02 µM): -0.3%
inhibition (CDK5 (human); compound 0.2 µM): 0.9%
inhibition (CDK7 (human); compound 0.02 µM): -1.6%
inhibition (CDK7 (human); compound 0.2 µM): -2.2%
inhibition (CHUK (human); compound 0.02 µM): -1.2%
inhibition (CHUK (human); compound 0.2 µM): 0.9%
inhibition (EPHA6 (human); compound 0.02 µM): 3.8%
inhibition (EPHA6 (human); compound 0.2 µM): 22.3%
inhibition (FGFR4 (human); compound 0.02 µM): 0.7%
inhibition (FGFR4 (human); compound 0.2 µM): 29.7%
inhibition (FLT1 (human); compound 0.02 µM): 66.5%
inhibition (FLT1 (human); compound 0.2 µM): 99.8%
inhibition (INSRR (human); compound 0.02 µM): 0.1%
inhibition (INSRR (human); compound 0.2 µM): 0.3%
inhibition (JAK2 JH1 JH2 (human); compound 0.02 µM): 4.8%
inhibition (JAK2 JH1 JH2 (human); compound 0.2 µM): 11.4%
inhibition (KDR (human); compound 0.02 µM): 81.6%
inhibition (KDR (human); compound 0.2 µM): 99.2%
inhibition (MAPK14 (human); compound 0.02 µM): -9%
inhibition (MAPK14 (human); compound 0.2 µM): -2.5%
inhibition (MAPKAPK2 (human); compound 0.02 µM): 5.5%
inhibition (MAPKAPK2 (human); compound 0.2 µM): 1.5%
inhibition (MELK (human); compound 0.02 µM): 8.1%
inhibition (MELK (human); compound 0.2 µM): 12.4%
inhibition (NUAK2 (human); compound 0.02 µM): -16.5%
inhibition (NUAK2 (human); compound 0.2 µM): 6.3%
inhibition (PDGFRB (human); compound 0.02 µM): 36.7%
inhibition (PDGFRB (human); compound 0.2 µM): 81.4%
inhibition (PHKG2 (human); compound 0.02 µM): -3.5%
inhibition (PHKG2 (human); compound 0.2 µM): -1.8%
inhibition (PRKCB1 (human); compound 0.02 µM): 3% and 5.4%
inhibition (PRKCB1 (human); compound 0.2 µM): 0.8% and 5.1%
inhibition (PRKCG (human); compound 0.02 µM): 4%
inhibition (PRKCG (human); compound 0.2 µM): -6.3%
inhibition (PRKCQ (human); compound 0.02 µM): 1.7%
inhibition (PRKCQ (human); compound 0.2 µM): 0.5%
inhibition (PRKD1 (human); compound 0.02 µM): -1.1%
inhibition (PRKD1 (human); compound 0.2 µM): -0.8%
inhibition (RET (human); compound 0.02 µM): 32.3%
inhibition (RET (human); compound 0.2 µM): 82.1%
inhibition (RPS6KA4 KD1 KD2 (human); compound 0.02 µM): -2.4%
inhibition (RPS6KA4 KD1 KD2 (human); compound 0.2 µM): 3.7%
inhibition (SPHK2 (human); compound 0.02 µM): 4.3%
inhibition (SPHK2 (human); compound 0.2 µM): -6.2%
inhibition (SRPK2 (human); compound 0.02 µM): -4.8%
inhibition (SRPK2 (human); compound 0.2 µM): -3.2%
inhibition (STK38L (human); compound 0.02 µM): -1.5%
inhibition (STK38L (human); compound 0.2 µM): 6.6%
inhibition (TXK (human); compound 0.02 µM): 3.3%
inhibition (TXK (human); compound 0.2 µM): 27.4%
inhibition (WNK3 (human); compound 0.02 µM): -0.8%
inhibition (WNK3 (human); compound 0.2 µM): 3.2%
inhibition (ZAP70 (human); compound 0.02 µM): 7%
inhibition (ZAP70 (human); compound 0.2 µM): 13.3%
SMILES: Cc1ccc(Nc2nccc(N(C)c3ccc4c(C)n(C)nc4c3)n2)cc1S(N)(=O)=O

— the kinase profiling compilation of Christmann-Franck et al. (2016)
